Data taken from patent publication EP1574213B1, “Use of histone deacetylase inhibitors for increasing therapeutic gain in radiotherapy and chemotherapy” (Asan Laboratories Company (Cayman), Limited, priority 2004, dated 2005).

Experiments:
EBV thymidine kinase = EBV thymidine kinase activity assay; assay type: cell-based, Epstein-Barr virus (EBV); conditions: 1 nM for 48 hours; EBV-positive Daudi cells
Procedure: For EBV thimidine kinase activity assay, an equal amount of cytosol fraction was incubated with reaction buffer (50mM Tris-HCl pH 7.4, 1mg/ml BSA, 3mM creatine phosphate, 11.2U/ml creatine phosphokinase, 0.1µm [3H-8]-GCV (specific activity 13.5 Ci/mmol), 2.5mM ATP, 2.5mM MgCl2, 10mM NaF, 10mM DTT) at 37°C for 30 mins. The reaction mixtures were added on WhatmanR DE-81 ion exchange chromatography papers, which were then washed with 1.5mM NH4COOH three times to remove unphosphorylated form of [3H-8]-GCV. After air dry, these papers were incubated with liquid scintillation cocktail overnight. The phosphorylation form of [3H-8]-GCV bound on WhatmanR DE-81 ion exchange chromatography paper was measured by LS6500 scintillation counter (Beckman).
The combination of TSA, GCV and radiation produced selectively maximal death in EBV-positive cells but not in EBV-negative cells (FIG. 11B). Daudi cells (EBV+) and HL-60 (EBV-) were treated with ganciclovir (GCV) (10 µg/ml) and /or trichostatin A (TSA) (1 nM) for 48 hours, then radiated with or without 1 Gy radiation (RT). Viable cells were counted 1 week later.

[1] = system: TGF-β1, TGF-β2, and TNF-α; assay: Cytokine mRNA in irradiated skin (RNase protection assay, northern blot); assay type: in vivo, rats; conditions: for radiation-induced TGF-β1, TGF-β2, and TNF-α expression: northern blot, irradiated skin
Procedure: (§1) The timing of the peak appearance of TGF-β1, TGF-β2, and TNF-α expression levels induced by radiation correlated with the beginning of development of radiation-induced damage (FIG. 4). Levels of TGF-β1, TGF-β2, TGF-β3, and TNF-α mRNA were assessed using a multiple cytokine RNase protection assay kit (Riboquant; Pharmingen, San Diego, CA) that contained a template set to allow for the generation of a 32P-labeled antisense RNA probe set that hybridized with the target mRNA for TGF-β1, TGF-β2, TGF-β3, TNF-α, and internal control GAPDH. After hybridization of labeled probe to target RNA, unprotected RNA was digested by a ribonuclease (RNase), and protected RNA fragments were resolved on a 6% polyacrylamide gel and recorded by phosphorimaging (Molecular Dynamics Corp., Sunnyvale, CA). Densitometry was used to quantify the amount of each mRNA species and was normalized to the internal control GAPDH.
The means of skin scores for skin reactions from five rats in each group were calculated. The average levels of cytokine/growth factor mRNA from three skin samples in each group were normalized to the internal control GAPDH and expressed as a ratio to the average level in time-matched control groups. The Mann-Whitney test (Stata Statistical Software, College Station, TX) was used to determine statistical significance at the p < 0.05 level for differences in average skin scores and in average mRNA levels, respectively, between treated and control rats.
Total RNA was isolated from frozen skin samples using Trigent (Molecular Research Center Inc., Cincinnati, OH). Total RNA (30 µg) was electrophoresed in a denaturing formaldehyde-agarose gel, blotted onto Hybond N (Amersham, Amersham, UK), and fixed by ultraviolet (UV) irradiation. The membrane was incubated with 32P-labeled probes, as described below, in Rapid-hyb buffer (Amersham). […]

irradiated skin = assay: Radiation-induced skin reaction after 40Gy, gross skin score and H&E histology; assay type: in vivo, Sprague Dawley (SD) rats; conditions: for radiation-induced skin damage including acute dermatitis and desquamation, and late fibrosis, ulceration and necrosis: in words
Procedure: Adult female Sprague Dawley (SD) rats were purchased from the animal center of the National Science Council of Taiwan, and weighed 250-300g at the time of irradiation. Each rat was caged alone and allowed chow and water. They were anesthetized with pentobarbital 50mg/kg i.p. before irradiation. The skin over gluteal area was shaved completely and radiation fields with 2-cm diameter were outlined with a marking pen just prior to irradiation. An electron beam with 6MeV energy produced by a linear accelerator was used. The dose was delivered on Day 0 at 4Gy/min up to 40Gy to the prepared area. Each group treated with a histone deacetylase inhibitor was further divided into three subgroups animals (5 each) : one subgroup treated with skin irradiation followed by vehicle, another with skin irradiation followed by a histone deacetylase inhibitor, and the third with skin irradiation only. Then vaseline (negative control), madecassol ointment (positive control), or either vehicles or the 1% phenylbutyrate cream, 1% valproic acid cream, or 0.1% trichostatin A ointment were applied topically to the irradiated skin twice daily from Day 1 to Day 90 after irradiation. The mean dosage for each treatment in the respective groups was 16mg vaseline per cm^2 skin, 16mg madecassol per cm^2 skin, 50mg phenylbutyrate per cm^2 skin, 50mg valproic acid per cm^2 skin, 5mg trichostatin A per cm^2 skin, and an equivalent amount of the vehicle base for the control groups. The gross skin reactions were evaluated in all rats. Acute skin reactions were evaluated and scored every other day until the 90th day after irradiation using the modified skin score system (Abe Y. and Urano M. Fraction size-dependent acute skin reaction of mice after multiple twice-a-day doses. International Journal of Radiation Oncology, Biology, Physics. 18(2):359-64, 1990): 0=normal, 0.5=slight epilation, 1.0=epilation in about 50% of the radiated area, 1.5=epilation in greater than 50% of the area, 2.0=complete epilation, 2.5=complete epilation with definitive edema or dry desquamation in more than 50% of the area, 3.0=moist desquamation in a small area, 3.5=moist desquamation in most of the area.
The skin score increases with more severe skin reaction. On Day 11, the skin reactions in the groups treated with madecassol (positive control) or histone deacetylase inhibitors were less marked than those in the negative or vehicle control groups. By day 21, the epilation in the negative or vehicle groups had progressed to wet desquamation in most areas whereas in the madecassol or histone deacetylase inhibitor groups, it improved, and epithelium healing had begun quickly. […]

p21Cip1 = p21Cip1 protein level in carcinoma cells in vitro; assay type: cell-based; conditions: BNL 1MEA7R.1 and CT-26 carcinoma cells; 4 mM PB
TGF-β3 = TGF-β3 mRNA in irradiated skin (RNase protection assay); assay type: in vivo, rats; conditions: Vaseline, vehicle, or PB
Procedure: as §1
The means of skin scores for skin reactions from five rats in each group were calculated. The average levels of cytokine/growth factor mRNA from three skin samples in each group were normalized to the internal control GAPDH and expressed as a ratio to the average level in time-matched control groups. […]

radiation-induced tumors = assay: Late radiation-induced skin tumor formation; assay type: in vivo, rats; conditions: 90 weeks, irradiated groups
Description: The decrease of TGF-β expression caused by PB treatment might decrease the incidence of late radiation-induced tumorigenesis. […] The histology of radiation-induced tumors included fibroma, spindle cell sarcoma, basal cell carcinoma, and squamous cell carcinoma.

TGF-beta protein = assay: Immunofluorescence with anti-TGF-beta1, 2 antibodies in irradiated skin; assay type: in vivo, rats; conditions: Day 180
Description: The same pathological sections in example 4 were subjected to immunofluorescence with the anti-TGF-beta1, 2 antibodies.

TNF-α = assay: Immunohistochemistry of TNF-alpha in irradiated skin; assay type: in vivo, rats; conditions: Day 270
Description: The decrease in late radiation-induced skin damage by topical PB was consistent with the suppression of TNF-α expression (FIG. 6).

[2] = system: syngeneic carcinoma cells 1MEA7R.1 and CT-26; assay: Direct antitumor effect on cutaneous tumor growth (both tumors, summary); assay type: in vivo, BALB/c mice; conditions: withdrawal after 5 weeks of treatment
Procedure: The syngeneic carcinoma cells 1MEA7R.1 and CT-26 (purchased from American Type Culture Collection, Manassas, VA) were subcutaneously injected into the flank areas of female BALB/c mice. The tumor was allowed to a maximum dimension of 0.5 cm. […] The tumor size was calculated weekly with a caliper according to the formula ab2/2, where a and b are the larger and smaller diameters (in centimeters), respectively.
(§2) The topical PB formulation was show to have antitumor effects. […] Cutaneous tumors were allowed to grow to the largest dimension 0. 5 cm (FIG. 8D), and PB was topically applied to the tumor surface at 200 mg/mouse twice per day. By 4 weeks, the tumor sizes of 1MEA7R.1 and CT-26 carcinomas in the placebo groups were almost 6- and 1.6-fold larger than those in the PB-treated groups, respectively (FIGS. 8B-8C).
The histological findings on skin specimens from 5 irradiated rats in each group are represented as follows: A, subepithelial swelling. B, dry desquamation in more than 50% of the area. C, wet desquamation in more than 50% of the area. D, atrophy of epidermis in most areas. E, atrophy of skin appendages in most areas. F, increased thickness of epithelium with more cell layers. G, increased collagen deposition, more vessel density, and increased thickness of dermis. H, chronic ulceration, necrosis, bullae formation, and more inflammatory cell infiltrate. […]

CT-26 = assay: Cutaneous tumor growth, topical treatment, CT-26; assay type: in vivo, BALB/c mice; conditions: 4 weeks; 200 mg/mouse twice per day topically
Procedure: (§3) The syngeneic carcinoma cells 1MEA7R.1 and CT-26 (purchased from American Type Culture Collection, Manassas, VA) were subcutaneously injected into the flank areas of female BALB/c mice. The tumor was allowed to a maximum dimension of 0.5 cm. Topical HDAC inhibitors or vehicle was applied at a dose of 200 mg/mouse to cover the whole tumor surface and surrounding skin twice per day for 4 weeks. The tumor size was calculated weekly with a caliper according to the formula ab2/2, where a and b are the larger and smaller diameters (in centimeters), respectively.
as §2

1MEA7R.1 = assay: Cutaneous tumor growth, topical treatment, 1MEA7R.1; assay type: in vivo, BALB/c mice; conditions: 4 weeks; 200 mg/mouse twice per day topically
Procedure: as §3, §2

[3] = system: CNE2 nasopharyngeal carcinoma cells; assay: Tumor radiosensitization, colony formation; assay type: cell-based; conditions: for Radiation enhancement ratio (RER): 60 minutes prior to radiation, at 10% survival
Procedure: Radiation enhancement ratio (RER) is used to calculate the ratio of radiation doses that give the same effect. RER= (Radiation dose without drug treatment at 10% survival fraction)/(Radiation dose with drug treatment at 10% survival fraction).
Valproic acid (0.1 mM or 0.5 mM) was added in CNE2 nasopharyngeal carcinoma cells 60 minutes prior to radiation with radiation dose from 2 to 16 Gy, then washed out. After one week, colonies containing more than 50 cells were counted.

| SMILES | EBV thymidine kinase activity (EBV thymidine kinase) | radiation-induced TGF-β1, TGF-β2, and TNF-α expression [1] | radiation-induced skin damage including acute dermatitis and desquamation, and late fibrosis, ulceration and necrosis (irradiated skin) | p21Cip1 (p21Cip1) | differences in TGF-β3 mRNA levels between irradiated groups (TGF-β3) | mRNA levels of TGF-β1, TGF-β2, and TNF-α ([1]; Day 28-35 after irradiation) | rats showing chronic ulceration, necrosis, bullae formation, and inflammatory cell infiltration (irradiated skin; Day 270) | cumulative tumor incident (radiation-induced tumors) [%] | expression of TGF-beta (TGF-beta protein) | TNF-α expression (TNF-α) | time to reach the same size as control or placebo tumors after withdrawal [2] [weeks] | tumor size in the placebo group relative to the PB-treated group (CT-26) [fold] | tumor size in the placebo group relative to the PB-treated group (1MEA7R.1) [fold] | plating efficiency ([3]; versus control) | Radiation enhancement ratio (RER) ([3]; 0.1 mM) | Radiation enhancement ratio (RER) ([3]; 0.5 mM) |
| --- | --- | --- | --- | --- | --- | --- | --- | --- | --- | --- | --- | --- | --- | --- | --- | --- |
| CC(/C=C/C(=O)NO)=C\[C@@H](C)C(=O)c1ccc(N(C)C)cc1 [TSA, Trichostatin A] | up-regulated | decreased | suppressing |  |  |  |  |  |  |  |  |  |  |  |  |  |
| O=C(O)CCCc1ccccc1 [PB, Phenylbutyrate] |  |  | suppressing | up-regulation | No significant differences | returned to the non-irradiated control levels | zero of five | 0 | suppressed effectively | suppression | ≤ 2 | ~1.6 | ~6 | the same |  |  |
| CCCC(CCC)C(=O)O [Valproic acid] |  | decreased | suppressing |  |  |  |  |  |  |  |  |  |  |  | 1.2 | 1.7 |
